Converted amounts (≈) assume the structure as drawn. Read-outs that look alike come from different tables or passages of the source.
Tests used:
Assay type in all cases: cell-based
Escherichia coli [1] = assay: MIC and MBC, broth microdilution (Example 4, Table 3); details: for MBC: read-out: MBC; for MIC: read-out: MIC
Escherichia coli [2] = assay: MIC, broth microdilution, standard strains and Japanese clinical isolates (Example 5, Table 4)
Klebsiella pneumoniae = assay: as above
Enterobacter cloacae = assay: as above
[3] = ATCCBAA2340, Escherichia coli ATCC BAA-2340 (KPC-3)
[4] = ATCCBAA2469, Escherichia coli ATCC BAA-2469 (NDM-1)
[5] = Escherichia coli NCTC13476 (IMP-1)

C[C@@H](O)[C@H]1C(=O)N2C(C(=O)O)=C(S[C@@H]3CN[C@H](C(=O)N(C)C)C3)[C@H](C)[C@H]12 [MEPM, meropenem]
MBC (Escherichia coli [1]; [3]): 8 µg/mL (≈ 20.9 µM) | MIC (Escherichia coli [1]; [3]): 4 µg/mL (≈ 10.4 µM) | MBC (Escherichia coli [1]; [4]): 32 µg/mL (≈ 83.4 µM) | MIC (Escherichia coli [1]; [4]): 32 µg/mL (≈ 83.4 µM) | MBC (Escherichia coli [1]; [5]): 8 µg/mL (≈ 20.9 µM) | MIC (Escherichia coli [1]; [5]): 4 µg/mL (≈ 10.4 µM) | MIC (Escherichia coli [2]; ATCCBAA2340, KUB3148 Escherichia coli ATCC BAA-2340, KPC-3): 0.5 µg/mL (≈ 1.3 µM) | MIC (Escherichia coli [2]; ATCCBAA2452, KUB4005 Escherichia coli ATCC BAA-2452, NDM-1): 1 µg/mL (≈ 2.61 µM) | MIC (Escherichia coli [2]; ATCCBAA2469, KUB3149 Escherichia coli ATCC BAA-2469, NDM-1): 2 µg/mL (≈ 5.22 µM) | MIC (Escherichia coli [2]; ATCCBAA2471, KUB4007 Escherichia coli ATCC BAA-2471, NDM-6): 32 µg/mL (≈ 83.4 µM) | MIC (Escherichia coli [2]; ATCCBAA2523, KUB3150 Escherichia coli ATCC BAA-2523, OXA-48): 0.06 µg/mL (≈ 0.156 µM) | MIC (Escherichia coli [2]; KUB3151 Escherichia coli NCTC13476, IMP-1): 1 µg/mL (≈ 2.61 µM) | MIC (Escherichia coli [2]; KUB3605 Escherichia coli Clinical isolate, NDM-1): 32 µg/mL (≈ 83.4 µM) | MIC (Klebsiella pneumoniae; ATCCBAA1705, KUB3152 Klebsiella pneumoniae ATCC BAA-1705, KPC-2): 4 µg/mL (≈ 10.4 µM) | MIC (Klebsiella pneumoniae; ATCCBAA1898, KUB3996 Klebsiella pneumoniae ATCC BAA-1898, KPC-2): 32 µg/mL (≈ 83.4 µM) | MIC (Klebsiella pneumoniae; ATCCBAA1899, KUB3997 Klebsiella pneumoniae ATCC BAA-1899, KPC-2): 8 µg/mL (≈ 20.9 µM) | MIC (Klebsiella pneumoniae; ATCCBAA1900, KUB3998 Klebsiella pneumoniae ATCC BAA-1900, KPC-3): 8 µg/mL (≈ 20.9 µM) | MIC (Klebsiella pneumoniae; ATCCBAA1902, KUB3153 Klebsiella pneumoniae ATCC BAA-1902, KPC-3): 64 µg/mL (≈ 167 µM) | MIC (Klebsiella pneumoniae; ATCCBAA1903, KUB3154 Klebsiella pneumoniae ATCC BAA-1903, KPC-2): 4 µg/mL (≈ 10.4 µM) | MIC (Klebsiella pneumoniae; ATCCBAA1904, KUB3999 Klebsiella pneumoniae ATCC BAA-1904, KPC-3): 2 µg/mL (≈ 5.22 µM) | MIC (Klebsiella pneumoniae; ATCCBAA1905, KUB3155 Klebsiella pneumoniae ATCC BAA-1905, KPC-2): 8 µg/mL (≈ 20.9 µM) | MIC (Klebsiella pneumoniae; ATCCBAA2078, KUB4000 Klebsiella pneumoniae ATCC BAA-2078, KPC-3): 4 µg/mL (≈ 10.4 µM) | MIC (Klebsiella pneumoniae; ATCCBAA2146, KUB4011 Klebsiella pneumoniae ATCC BAA-2146, NDM-1): 64 µg/mL (≈ 167 µM) | MIC (Klebsiella pneumoniae; ATCCBAA2342, KUB4003 Klebsiella pneumoniae ATCC BAA-2342, KPC-3): 4 µg/mL (≈ 10.4 µM) | MIC (Klebsiella pneumoniae; ATCCBAA2343, KUB4004 Klebsiella pneumoniae ATCC BAA-2343, KPC-3): 16 µg/mL (≈ 41.7 µM) | MIC (Klebsiella pneumoniae; ATCCBAA2344, KUB3156 Klebsiella pneumoniae ATCC BAA-2344, KPC-2): 4 µg/mL (≈ 10.4 µM) | MIC (Klebsiella pneumoniae; ATCCBAA2470, KUB3157 Klebsiella pneumoniae subsp. pneumoniae ATCC BAA-2470, NDM-1): 16 µg/mL (≈ 41.7 µM) | MIC (Klebsiella pneumoniae; ATCCBAA2473, KUB4009 Klebsiella pneumoniae ATCC BAA-2473, NDM-1): 64 µg/mL (≈ 167 µM) | MIC (Klebsiella pneumoniae; ATCCBAA2524, KUB3158 Klebsiella pneumoniae subsp. pneumoniae ATCC BAA-2524, OXA-48): 0.25 µg/mL (≈ 0.652 µM) | MIC (Klebsiella pneumoniae; KUB3163 Klebsiella pneumoniae Clinical isolate, IMP-1): 0.5 µg/mL (≈ 1.3 µM) | MIC (Klebsiella pneumoniae; KUB3164 Klebsiella pneumoniae Clinical isolate, IMP-6): 2 µg/mL (≈ 5.22 µM) | MIC (Klebsiella pneumoniae; KUB3166 Klebsiella pneumoniae Clinical isolate, IMP-1): 0.5 µg/mL (≈ 1.3 µM) | MIC (Klebsiella pneumoniae; KUB3606 Klebsiella pneumoniae Clinical isolate, KPC-38): 256 µg/mL (≈ 668 µM) | MIC (Klebsiella pneumoniae; KUB3607 Klebsiella pneumoniae Clinical isolate, IMP-1): 0.5 µg/mL (≈ 1.3 µM) | MIC (Klebsiella pneumoniae; KUB3628 Klebsiella pneumoniae Clinical isolate, IMP-1): 8 µg/mL (≈ 20.9 µM) | MIC (Klebsiella pneumoniae; KUB3630 Klebsiella pneumoniae Clinical isolate, IMP-1): 1 µg/mL (≈ 2.61 µM) | MIC (Klebsiella pneumoniae; KUB3631 Klebsiella pneumoniae Clinical isolate, IMP-1): 4 µg/mL (≈ 10.4 µM) | MIC (Klebsiella pneumoniae; KUB3633 Klebsiella pneumoniae Clinical isolate, IMP-6): 1 µg/mL (≈ 2.61 µM) | MIC (Klebsiella pneumoniae; KUB3634 Klebsiella pneumoniae Clinical isolate, IMP-6): 1 µg/mL (≈ 2.61 µM) | MIC (Klebsiella pneumoniae; KUB3635 Klebsiella pneumoniae Clinical isolate, IMP-1): 32 µg/mL (≈ 83.4 µM) | MIC (Klebsiella pneumoniae; NCTC13439, KUB3159 Klebsiella pneumoniae NCTC13439, VIM-1): 0.5 µg/mL (≈ 1.3 µM) | MIC (Klebsiella pneumoniae; NCTC13440, KUB3160 Klebsiella pneumoniae NCTC13440, VIM-1): 0.5 µg/mL (≈ 1.3 µM) | MIC (Enterobacter cloacae; ATCCBAA2341, KUB4002 Enterobacter cloacae ATCC BAA-2341, KPC-3): 16 µg/mL (≈ 41.7 µM) | MIC (Enterobacter cloacae; KUB3165 Enterobacter cloacae Clinical isolate, IMP-34): 0.25 µg/mL (≈ 0.652 µM) | MIC (Enterobacter cloacae; KUB3167 Enterobacter cloacae Clinical isolate, IMP-1): 0.25 µg/mL (≈ 0.652 µM) | MIC (Enterobacter cloacae; KUB3168 Enterobacter cloacae Clinical isolate, carbapenemase genes -): 0.06 µg/mL (≈ 0.156 µM)

— EP4635500A1, “THERAPEUTIC AGENT FOR BACTERIAL INFECTION” (Sumitomo Pharma Co., Ltd., priority 2022, dated 2024)
